What was measured:
[1] = Dose proportionality (linearity) test by power model for C max and AUC0-last; details: for Dose proportionality test using power model, Inference: linear when 90% CI of β included 1, CIlower ≥0.8, and CIupper ≤1.25; for Dose proportionality test using power model, β: rikkunshito 2.5, 5.0 or 7.5 g
Description: The dose proportionality was analyzed via a power model [21, 22]. […] Evaluation of linearity of the dosage-exposure relationship was conducted with Phoenix WinNonlin and SAS 9.2 (SAS Institute, Inc., Cary, NC).

[2] = Method validation: stability in blood
[3] = Randomized crossover quantitative trial: plasma pharmacokinetics of nine ingredients after rikkunshito 2.5, 5.0 or 7.5 g; details: for AUC(0-t) / Cmax / Tmax / half-life: human, po; for Tmax: Median t max (range); for Tmax / Median t max (range): median (minimum–maximum)
Outline: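 Plasma concentrations of ingredients were measured by LC–MS/MS or GC–MS in samples taken from pre-dose to 48 h. Dosing was a single oral rikkunshito dose (2.5, 5.0 or 7.5 g; three-arm randomized crossover) in fasted healthy Japanese volunteers aged 20–45.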

[4] = Method validation: short-term stability in plasma
[5] = 7.5 g dosage; cited from earlier work
[6] = Method validation: post-preparative stability (autosampler); details: for Post-preparative stability, RR: autosampler set at 4°C
[7] = Stability of ingredients in gastric pH solution (pH 1.2, 37°C); assay type: physicochemical
Description: Rikkunshito gradually dissolved in acidic solution (pH 1.2) at 37°C, and the concentration of atractylodin after adding 0.25, 0.5, 1, and 2 h was measured by gas chromatography–mass spectrometry.

[8] = Method validation: freeze-thaw stability in plasma
[9] = Method validation: long-term stability in plasma
[10] = rikkunshito 7.5 g single oral, n = 19, geometric mean (95% CI)
[11] = rikkunshito 7.5 g single oral, n = 19

C/C=C/C#CC#C/C=C/c1ccco1 [Atractylodin]
Dose proportionality test using power model, Inference ([1]; AUC0-last): Nonlinear | Dose proportionality test using power model, β ([1]; AUC0-last): 1.60 | Dose proportionality test using power model, Inference ([1]; Cmax): Linear^a | Dose proportionality test using power model, β ([1]; Cmax): 0.988 | Stability in blood, remaining ratio (RR) ([2]; atractylodin 1.00 ng/mL, at room temperature for 2 h): 90.3% | Stability in blood, RR ([2]; atractylodin 1.00 ng/mL, on ice for 2 h): 93.8% | Plasma concentration just before the administration ([3]; all subjects, quantitative trial): BQL | AUC(0-t) ([3]; in vivo, 2.5 g): 0.318 ng·h/mL | Cmax ([3]; in vivo, 2.5 g): 0.531 ng/mL | Tmax ([3]; in vivo, 2.5 g, rikkunshito 2.5 g single oral, n = 21): 0.5 h | AUC(0-t) ([3]; in vivo, 5 g): 1.06 ng·h/mL | Cmax ([3]; in vivo, 5 g): 1.02 ng/mL | Tmax ([3]; in vivo, 5 g, rikkunshito 5.0 g single oral, n = 19): 0.5 h | half-life ([3]; in vivo, 5 g, t 1/2, rikkunshito 5.0 g single oral, n = 19, geometric mean (95% CI)): 0.746 h | AUC(0-t) ([3]; in vivo, 7.5 g): 1.76 ng·h/mL | Cmax ([3]; in vivo, 7.5 g): 1.57 ng/mL | Tmax ([3]; in vivo, 7.5 g, rikkunshito 7.5 g single oral, n = 19): ≤ 1 h | t 1/2 [3, 10]: 0.888 (0.687–1.15) h | Median t max (range) [3, 11]: 0.500 (0.250–1.00) h | Short-term stability, RR ([4]; atractylodin 0.600 ng/mL, deep freezer (−90.4°C to −69.5°C) for 4 h): 95.6% | Short-term stability, RR ([4]; atractylodin 0.600 ng/mL, deep freezer for 24 h): 101.5% | Short-term stability, RR ([4]; atractylodin 16.0 ng/mL, deep freezer (−90.4°C to −69.5°C) for 4 h): 101.9% | Short-term stability, RR ([4]; atractylodin 16.0 ng/mL, deep freezer for 24 h): 102.9% | Maximum plasma concentration in the preliminary pharmacokinetics study [5]: 1.84 ± 0.626 ng/mL | Post-preparative stability, RE ([6]; atractylodin 0.600 ng/mL, autosampler set at 4°C for 24 h): -3.8% | Post-preparative stability, RE ([6]; atractylodin 0.600 ng/mL, autosampler set at 4°C for 48 h): 4.0% | Post-preparative stability, RE ([6]; atractylodin 16.0 ng/mL, autosampler set at 4°C for 24 h): 9.0% | Post-preparative stability, RE ([6]; atractylodin 16.0 ng/mL, autosampler set at 4°C for 48 h): 8.7% | Stability in a solution with the same pH as that in the stomach ([7]; pH 1.2, 37°C, S10 Table): stable | Stability in gastric pH solution, Quantitative value ([7]; rikkunshito in acidic solution (pH 1.2) at 37°C, 0.5 h): 9.03 ng/mL | Stability in gastric pH solution, Quantitative value ([7]; rikkunshito in acidic solution (pH 1.2) at 37°C, 1 h): 9.72 ng/mL | Stability in gastric pH solution, Quantitative value ([7]; rikkunshito in acidic solution (pH 1.2) at 37°C, 2 h): 8.13 ng/mL | Freeze-thaw stability, RR ([8]; atractylodin 0.600 ng/mL, deep freezer, 2 cycles): 109.3% | Freeze-thaw stability, RR ([8]; atractylodin 0.600 ng/mL, deep freezer, 3 cycles): 115.1% | Freeze-thaw stability, RR ([8]; atractylodin 16.0 ng/mL, deep freezer, 2 cycles): 122.6% | Freeze-thaw stability, RR ([8]; atractylodin 16.0 ng/mL, deep freezer, 3 cycles): 133.6% | Long-term stability, RR ([9]; atractylodin 0.600 ng/mL, deep freezer, 15 days): 98.4% | Long-term stability, RR ([9]; atractylodin 0.600 ng/mL, deep freezer, 29 days): 88.7% | Long-term stability, RR ([9]; atractylodin 0.600 ng/mL, deep freezer, 57 days): 101.4% | Long-term stability, RR ([9]; atractylodin 0.600 ng/mL, deep freezer, 169 days): 95.2% | Long-term stability, RR ([9]; atractylodin 16.0 ng/mL, deep freezer, 15 days): 98.6% | Long-term stability, RR ([9]; atractylodin 16.0 ng/mL, deep freezer, 29 days): 98.6% | Long-term stability, RR ([9]; atractylodin 16.0 ng/mL, deep freezer, 57 days): 109.4 | Long-term stability, RR ([9]; atractylodin 16.0 ng/mL, deep freezer, 169 days): 102.8%

COc1ccc(-c2oc3c(OC)c(OC)c(OC)c(OC)c3c(=O)c2OC)cc1OC [Heptamethoxyflavone, 3,3′,4′,5,6,7,8-heptamethoxyflavone]
Dose proportionality test using power model, Inference ([1]; AUC0-last): Nonlinear | Dose proportionality test using power model, β ([1]; AUC0-last): 0.804 | Dose proportionality test using power model, Inference ([1]; Cmax): Nonlinear | Dose proportionality test using power model, β ([1]; Cmax): 0.817 | Stability in blood, RR ([2]; on ice 2 h, higher concentration (800 / 320 / 4000 pg/mL)): 92.3% | Stability in blood, RR ([2]; on ice 2 h, lower concentration (20 / 8 / 100 pg/mL)): 97.5% | Stability in blood, RR ([2]; room temperature 2 h, higher concentration (pachymic acid 800, heptamethoxyflavone 320, naringenin 4000 pg/mL)): 96.0% | Stability in blood, RR ([2]; room temperature 2 h, lower concentration (pachymic acid 20, heptamethoxyflavone 8, naringenin 100 pg/mL)): 107.1% | AUC(0-t) ([3]; plasma, 2.5 g, AUC0-last, rikkunshito 2.5 g single oral, n = 21, geometric mean (95% CI)): 0.0849 ng·h/mL | Cmax ([3]; plasma, 2.5 g, C max, rikkunshito 2.5 g single oral, n = 21, geometric mean (95% CI)): 0.0388 ng/mL | Tmax ([3]; plasma, 2.5 g, rikkunshito 2.5 g single oral, n = 21): 0.5 h | half-life ([3]; plasma, 2.5 g, t 1/2, rikkunshito 2.5 g single oral, n = 21, geometric mean (95% CI)): 1.92 h | AUC(0-t) ([3]; plasma, 5 g, AUC0-last, rikkunshito 5.0 g single oral, n = 19, geometric mean (95% CI)): 0.124 ng·h/mL | Cmax ([3]; plasma, 5 g, C max, rikkunshito 5.0 g single oral, n = 19, geometric mean (95% CI)): 0.0582 ng/mL | Tmax ([3]; plasma, 5 g, rikkunshito 5.0 g single oral, n = 19): 1 h | half-life ([3]; plasma, 5 g, t 1/2, rikkunshito 5.0 g single oral, n = 19, geometric mean (95% CI)): 1.5 h | AUC(0-t) ([3]; plasma, 7.5 g, AUC0-last, rikkunshito 7.5 g single oral, n = 19, geometric mean (95% CI)): 0.225 ng·h/mL | Cmax ([3]; plasma, 7.5 g, C max, rikkunshito 7.5 g single oral, n = 19, geometric mean (95% CI)): 0.105 ng/mL | Tmax ([3]; plasma, 7.5 g, rikkunshito 7.5 g single oral, n = 19): ≤ 1 h | t 1/2 [3, 10]: 1.51 (1.15–1.98) h | t 1/2 ([3]; rikkunshito 7.5 g single oral, n = 19, geometric mean (95% CI), listed as heptamethoxyflavone): < 10 h | Median t max (range) [3, 11]: 1.00 (0.250–1.02) h | Short-term stability, RR ([4]; room temperature 25 h, higher concentration (pachymic acid 800, heptamethoxyflavone 320 pg/mL)): 91.2% | Short-term stability, RR ([4]; room temperature 25 h, lower concentration (pachymic acid 20, heptamethoxyflavone 8 pg/mL)): 90.3% | Short-term stability, RR ([4]; room temperature (1°C to 30°C) 4 h, higher concentration (800 / 320 / 4000 pg/mL)): 103.3% | Short-term stability, RR ([4]; room temperature (1°C to 30°C) 4 h, lower concentration (20 / 8 / 100 pg/mL)): 99.5% | Maximum plasma concentration in the preliminary pharmacokinetics study [5]: 0.253 ± 0.301 ng/mL | Post-preparative stability, RR ([6]; 24 h, higher concentration (pachymic acid 800, heptamethoxyflavone 320 pg/mL)): 86.3% | Post-preparative stability, RR ([6]; 24 h, lower concentration (pachymic acid 20, heptamethoxyflavone 8 pg/mL)): 100.3% | Post-preparative stability, RR ([6]; 48 h, higher concentration (800 / 320 / 4000 pg/mL)): 90.8% | Post-preparative stability, RR ([6]; 48 h, lower concentration (20 / 8 / 100 pg/mL)): 96.5% | Stability in gastric pH solution, Quantitative value ([7]; 0.5 h, pH 1.2): 25.5 ng/mL | Stability in gastric pH solution, Quantitative value ([7]; 1 h, pH 1.2): 30.7 ng/mL | Stability in gastric pH solution, Quantitative value ([7]; 2 h, pH 1.2): 28.7 ng/mL | Freeze-thaw stability, RR ([8]; −30°C to −10°C, 3 cycles, higher concentration (800 / 320 / 4000 pg/mL)): 113.5% | Freeze-thaw stability, RR ([8]; −30°C to −10°C, 3 cycles, lower concentration (20 / 8 / 100 pg/mL)): 107.1% | Long-term stability, RR ([9]; freezer −30°C to −10°C, 13 days, lower concentration (pachymic acid 20, heptamethoxyflavone 8 pg/mL)): 90.3% | Long-term stability, RR ([9]; freezer, 13 days, higher concentration (pachymic acid 800, heptamethoxyflavone 320 pg/mL)): 113.1% | Long-term stability, RR ([9]; freezer, 39 days, higher concentration (800 / 320 pg/mL)): 99.7% | Long-term stability, RR ([9]; freezer, 39 days, lower concentration (20 / 8 pg/mL)): 85.5% | Long-term stability, RR ([9]; freezer, 228 days, higher concentration (800 / 320 pg/mL)): 87.5% | Long-term stability, RR ([9]; freezer, 228 days, lower concentration (20 / 8 pg/mL)): 85.0%

Source: PMC4506051, “Pharmacokinetic Profiles of Active Ingredients and Its Metabolites Derived from Rikkunshito, a Ghrelin Enhancer, in Healthy Japanese Volunteers: A Cross-Over, Randomized Study” (PLoS ONE, 2015)
